Among the data in PubChem BioAssay AID602321 (The Scripps Research Institute Molecular Screening Center, 2012) are inhibition and outcome values, retold here.

The source made the active and inactive calls. How the calls were made is not given here.

Holding throughout (test): ABPP selectivity among brain hydrolases, two doses – biochemical, gel-based competitive ABPP, mouse brain membrane, set 3, selectivity assay for DAGLb inhibitor project, late-stage follow-up (AID 602321)
In experiment [1] the target is Acyl-protein thioesterase 2 (Mus musculus) (UniProt Q9WTL7). The following applies: gel-based competitive ABPP fluorescence, stronger effect = higher value.
In the next experiment the test system is APEH. Particulars: gel-based competitive ABPP fluorescence, APEH, stronger effect = higher value.
Another experiment deals with FAAH. The following applies: gel-based competitive ABPP fluorescence, stronger effect = higher value.
In experiment [2] the target is Monoacylglycerol lipase ABHD6 (Mus musculus) (UniProt Q8R2Y0). Particulars: gel-based competitive ABPP fluorescence, stronger effect = higher value.
In a further experiment the test system is LYPLA1. Particulars: gel-based competitive ABPP fluorescence, stronger effect = higher value.
Experiment [3] has as its system Acyl-protein thioesterase 1 (Mus musculus) + Monoacylglycerol lipase ABHD6 (Mus musculus) + Acyl-protein thioesterase 2 (Mus musculus). Particulars: gel-based competitive ABPP fluorescence.
Experiment [4] has as its target Acyl-protein thioesterase 1 (Mus musculus) + Monoacylglycerol lipase ABHD6 (Mus musculus) + Acyl-protein thioesterase 2 (Mus musculus) (UniProt P97823+Q8R2Y0+Q9WTL7). Particulars: gel-based competitive ABPP fluorescence.

Monoacylglycerol lipase ABHD6 (Mus musculus), sequence (Q8R2Y0 whole entry, looked up): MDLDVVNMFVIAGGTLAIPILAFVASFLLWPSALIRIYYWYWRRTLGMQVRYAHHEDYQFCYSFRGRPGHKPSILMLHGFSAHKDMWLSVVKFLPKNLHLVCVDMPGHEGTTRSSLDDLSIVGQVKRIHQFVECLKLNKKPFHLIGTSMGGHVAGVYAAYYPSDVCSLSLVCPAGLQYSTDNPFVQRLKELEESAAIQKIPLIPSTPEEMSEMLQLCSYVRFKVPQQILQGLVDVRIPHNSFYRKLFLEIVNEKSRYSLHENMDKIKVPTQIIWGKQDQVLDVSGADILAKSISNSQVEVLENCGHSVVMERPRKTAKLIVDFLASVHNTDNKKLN
Acyl-protein thioesterase 2 (Mus musculus), sequence (Q9WTL7 whole entry, looked up): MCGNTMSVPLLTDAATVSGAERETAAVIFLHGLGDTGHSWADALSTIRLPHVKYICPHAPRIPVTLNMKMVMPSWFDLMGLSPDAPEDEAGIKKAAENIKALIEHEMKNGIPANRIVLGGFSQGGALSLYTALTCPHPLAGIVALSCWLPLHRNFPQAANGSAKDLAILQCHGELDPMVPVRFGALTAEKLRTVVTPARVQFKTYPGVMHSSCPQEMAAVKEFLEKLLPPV
Acyl-protein thioesterase 1 (Mus musculus) + Monoacylglycerol lipase ABHD6 (Mus musculus) + Acyl-protein thioesterase 2 (Mus musculus) (UniProt P97823+Q8R2Y0+Q9WTL7), sequence (P97823 whole entry, looked up): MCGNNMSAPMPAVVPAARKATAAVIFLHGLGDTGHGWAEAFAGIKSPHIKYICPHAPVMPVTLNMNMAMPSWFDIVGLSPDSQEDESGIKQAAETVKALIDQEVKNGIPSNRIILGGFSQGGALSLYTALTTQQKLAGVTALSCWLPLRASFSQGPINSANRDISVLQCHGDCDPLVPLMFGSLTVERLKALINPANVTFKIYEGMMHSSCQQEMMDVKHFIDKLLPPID
Acyl-protein thioesterase 1 (Mus musculus) + Monoacylglycerol lipase ABHD6 (Mus musculus) + Acyl-protein thioesterase 2 (Mus musculus) (UniProt P97823+Q8R2Y0+Q9WTL7), sequence (Q8R2Y0 whole entry, looked up): as the sequence (Q8R2Y0 whole entry, looked up) above
Acyl-protein thioesterase 1 (Mus musculus) + Monoacylglycerol lipase ABHD6 (Mus musculus) + Acyl-protein thioesterase 2 (Mus musculus) (UniProt P97823+Q8R2Y0+Q9WTL7), sequence (Q9WTL7 whole entry, looked up): as the sequence (Q9WTL7 whole entry, looked up) above

Regarding `O=C(N1CCCCC1Cc1ccccc1)n1cc(-c2ccc(-c3cccc(CO)c3)cc2)nn1` (stereo unspecified), the inhibition is 0% (inactive) in experiment [1] (LYPLA2, at 10 µM); 0% in experiment [1] (LYPLA2, inhibition, at 1 µM); 0% (inactive) in the experiment with APEH (at 10 µM); 0% with APEH (inhibition, at 1 µM); 25% (inactive) in the experiment with FAAH (at 10 µM); 0% in the experiment on FAAH (inhibition, at 1 µM). Moreover, the inhibition in experiment [2] (at 10 µM) was 98%; in experiment [2] (inhibition, at 1 µM), 98%; with LYPLA1 (at 10 µM), 0% (inactive); with LYPLA1 (inhibition, at 1 µM), 0%.

Consider `O=C(N1CCCCC1c1ccccc1)n1cc(-c2ccc(-c3ccccc3CO)cc2)nn1` (stereo unspecified), for which the inhibition in experiment [1] (LYPLA2, at 10 µM) is 100%; in experiment [1] (LYPLA2, inhibition, at 1 µM) it was 20%; in the experiment with APEH (at 10 µM), 45% (inactive); with APEH (inhibition, at 1 µM), 0%; in the experiment with FAAH (at 10 µM), 98%; with FAAH (inhibition, at 1 µM) it was 15%. For the same molecule, the inhibition in experiment [2] (at 10 µM) is 98%; in experiment [2] (inhibition, at 1 µM), 98%; in the experiment on LYPLA1 (at 10 µM) it was 100%; in the experiment on LYPLA1 (inhibition, at 1 µM), 20%.

With `O=C(O)c1cccc(-c2ccc(-c3cn(C(=O)N4CCCCC4Cc4ccccc4)nn3)cc2)c1` (stereo unspecified), in experiment [3], the outcome was inactive. For the same molecule, in experiment [4], the outcome was active. Besides, the inhibition is 15% (inactive) with LYPLA1 (at 10 µM) and 0% in the experiment with LYPLA1 (inhibition, at 1 µM).

As to `O=C(N1CCCCC1c1ccccc1)n1cc(-c2ccc(-c3ccc(CO)cc3)cc2)nn1` (stereo unspecified), the inhibition in experiment [1] (LYPLA2, at 10 µM) is 90%; in experiment [1] (LYPLA2, inhibition, at 1 µM), 10%; with APEH (at 10 µM), 25% (inactive); in the experiment with APEH (inhibition, at 1 µM), 0%; with FAAH (at 10 µM) it was 90%; with FAAH (inhibition, at 1 µM), 0%. For the same molecule, the inhibition is 98% in experiment [2] (at 10 µM); 98% in experiment [2] (inhibition, at 1 µM); 90% in the experiment on LYPLA1 (at 10 µM); 10% in the experiment on LYPLA1 (inhibition, at 1 µM).

With `O=C(c1ccc(-c2ccc(-c3cn(C(=O)N4CCCCC4Cc4ccccc4)nn3)cc2)cc1)N1CCCCC1` (stereo unspecified), the inhibition in experiment [1] (LYPLA2, at 10 µM) is 0% (inactive); in experiment [1] (LYPLA2, inhibition, at 1 µM), 0%; with APEH (at 10 µM), 0% (inactive); in the experiment on APEH (inhibition, at 1 µM), 0%; with FAAH (at 10 µM), 0% (inactive); in the experiment on FAAH (inhibition, at 1 µM), 0%. Besides, the inhibition is 98% in experiment [2] (at 10 µM); 98% in experiment [2] (inhibition, at 1 µM); 0% (inactive) in the experiment on LYPLA1 (at 10 µM); 0% with LYPLA1 (inhibition, at 1 µM).

`O=C(N1CCCCC1c1ccccc1)n1cc(-c2ccc(-c3cccc(CO)c3)cc2)nn1` (stereo unspecified): the outcome in experiment [3] was inactive. In addition, the outcome in experiment [4] was active. Also, the inhibition in the experiment on LYPLA1 (at 10 µM) was 95%; with LYPLA1 (inhibition, at 1 µM), 15%.

For `O=C(c1cccc(-c2ccc(-c3cn(C(=O)N4CCCCC4c4ccccc4)nn3)cc2)c1)N1CCCCC1` (stereo unspecified), the result in experiment [3] was inactive. In addition, the inhibition with LYPLA1 (at 10 µM) is 98%; in the experiment on LYPLA1 (inhibition, at 1 µM), 20%.

Regarding `O=C(O)c1cccc(-c2ccc(-c3cn(C(=O)N4CCCCC4CCc4ccccc4)nn3)cc2)c1` (stereo unspecified), the inhibition in experiment [1] (LYPLA2, at 10 µM) is 25% (inactive); in experiment [1] (LYPLA2, inhibition, at 1 µM) it was 0%; in the experiment with APEH (at 10 µM), 0% (inactive); in the experiment on APEH (inhibition, at 1 µM) it was 0%; in the experiment with FAAH (at 10 µM), 95%; in the experiment on FAAH (inhibition, at 1 µM) it was 15%. Moreover, the inhibition in experiment [2] (at 10 µM) is 98%; in experiment [2] (inhibition, at 1 µM) it was 98%; with LYPLA1 (at 10 µM) it was 25% (inactive); in the experiment with LYPLA1 (inhibition, at 1 µM) it was 0%.

As to `O=C(O)c1ccc(-c2ccc(-c3cn(C(=O)N4CCCCC4CCc4ccccc4)nn3)cc2)cc1` (stereo unspecified), the inhibition in experiment [1] (LYPLA2, at 10 µM) is 15% (inactive); in experiment [1] (LYPLA2, inhibition, at 1 µM), 0%; in the experiment with APEH (at 10 µM), 0% (inactive); with APEH (inhibition, at 1 µM), 0%; with FAAH (at 10 µM) it was 35% (inactive); with FAAH (inhibition, at 1 µM), 0%. For the same molecule, the inhibition is 98% in experiment [2] (at 10 µM); 90% in experiment [2] (inhibition, at 1 µM); 15% (inactive) in the experiment on LYPLA1 (at 10 µM); 0% in the experiment on LYPLA1 (inhibition, at 1 µM).

As for `NC(=O)c1ccc(-c2ccc(-c3cn(C(=O)N4CCCCC4c4ccccc4)nn3)cc2)cc1` (stereo unspecified), the inhibition in experiment [1] (LYPLA2, at 10 µM) was 90%; in experiment [1] (LYPLA2, inhibition, at 1 µM), 10%; with APEH (at 10 µM), 25% (inactive); in the experiment with APEH (inhibition, at 1 µM) it was 0%; with FAAH (at 10 µM), 95%; in the experiment on FAAH (inhibition, at 1 µM), 10%. Moreover, the inhibition in experiment [2] (at 10 µM) was 98%; in experiment [2] (inhibition, at 1 µM), 98%; with LYPLA1 (at 10 µM) it was 90%; in the experiment with LYPLA1 (inhibition, at 1 µM) it was 10%.

On to `O=C(c1ccc(-c2ccc(-c3cn(C(=O)N4CCCCC4c4ccccc4)nn3)cc2)cc1)N1CCCCC1` (stereo unspecified), for which the inhibition is 90% in experiment [1] (LYPLA2, at 10 µM); 15% in experiment [1] (LYPLA2, inhibition, at 1 µM); 25% (inactive) in the experiment on APEH (at 10 µM); 0% with APEH (inhibition, at 1 µM); 25% (inactive) in the experiment with FAAH (at 10 µM); 10% in the experiment on FAAH (inhibition, at 1 µM). The inhibition was 98% in experiment [2] (at 10 µM); 98% in experiment [2] (inhibition, at 1 µM); 90% in the experiment on LYPLA1 (at 10 µM); 15% in the experiment with LYPLA1 (inhibition, at 1 µM).

`O=C(O)c1cccc(-c2ccc(-c3cn(C(=O)N4CCCCC4c4ccccc4)nn3)cc2)c1` (stereo unspecified): the inhibition is 100% in experiment [1] (LYPLA2, at 10 µM); 85% in experiment [1] (LYPLA2, inhibition, at 1 µM); 98% in the experiment with APEH (at 10 µM); 80% in the experiment with APEH (inhibition, at 1 µM); 90% with FAAH (at 10 µM); 5% in the experiment with FAAH (inhibition, at 1 µM). The inhibition is 98% in experiment [2] (at 10 µM); 98% in experiment [2] (inhibition, at 1 µM); 100% in the experiment with LYPLA1 (at 10 µM); 85% with LYPLA1 (inhibition, at 1 µM).
